Source: publication PMC12979031 (Neuro-oncology, 2026)

Experiments:
recurrent IDHmt gliomas = settings: second study in this population; cited from earlier work
PARP1/2 = settings: read-out: in vitro IC50 for PARP1/2 inhibition; cited from earlier work
Surgical = type: in vivo; settings: human, oral, 60 mg

Row | SMILES | responses (recurrent IDHmt gliomas) | IC50 (PARP1/2) [nM] | fraction unbound (Surgical; enhancing tumor) | Kp (Surgical; non-enhancing tumor / plasma) | Kp uu (Surgical; non-enhancing tumor / plasma) | fraction unbound (Surgical; non-enhancing tumor) | fraction unbound (Surgical; plasma)
1 | O=C(c1cc(Cc2n[nH]c(=O)c3ccccc23)ccc1F)N1CCN(C(=O)C2CC2)CC1 [olaparib] | no responses |  |  |  |  |  | 
2 | C[C@]12CCCN1CC1=NNC(=O)c3cc(F)cc4[nH]c2c1c34 [pamiparib] |  | ~1 | 0.076 | 0.23 | 0.92 | 0.083 | 0.031
